Several values for one entry are separate records, joined by “and”; a condition that tells them apart may be missing. Identical values can stand only once. Like-named read-outs stand apart in the source and are kept apart here.
Experiment: ZEN concentrations and carryover factor in intestinal tissues and liver of pre-pubertal gilts exposed per os (HPLC)
Format: in vivo
Conditions: 40 μg/kg BW daily per os; for concentration at 4 weeks / concentration at 5 weeks / concentration at 1 week / concentration at 2 weeks / concentration at 3 weeks / concentration at 6 weeks: female, pig, oral
Procedure: The animals were divided into an experimental group (E, n = 18) and a control group (C, n = 21). Group E animals were orally administered ZEN at 40 μg/kg BW. Group C pigs were fed a placebo. The animals were fed complete diets in a restricted feeding regimen (Table 1). The daily dose of ZEN (40 µg/kg BW) was administered to each animal individually, which corresponds to exposure to 957–1014 µg ZEN/kg of a complete diet, depending on daily feed intake. Zearalenone was biosynthesized, purified and standardized by the Department of Chemistry of the Poznań University of Life Sciences. The experiment covered a period of 42 days. The mycotoxin was administered per os daily, in gelatine capsules before the morning feeding. The ZEN dose was adjusted to the body weight of the experimental animals. The mycotoxin was administered in capsules to prevent problems associated with uneven feed intake. Mycotoxin samples were diluted in 300 μL of 96% ethyl alcohol (96% ethyl alcohol, SWW 2442-90, Polskie Odczynniki Chemiczne SA, Gliwice, Poland) to the required dose level (based on body weight). Final solutions were stored at room temperature for 12 h to evaporate the solvent. The animals were weighed every 7 days to update mycotoxin doses for each gilt. Three animals from the experimental group and the control group each were sacrificed on Days 1, 7, 14, 21, 28, 35 and 42 (a total of 6 gilts in each week of exposure), excluding day 1, when only 3 control group animals were scarified. Every week, tissue samples were collected from the porcine gastrointestinal tract (duodenum, first and middle sections, jejunum, ileum, cecum, ascending colon, transverse colon, descending colon, middle section, and the liver, left lobe). Tissue samples were collected from the whole intestinal cross-sections.
Post-mortem tissue samples were collected from the duodenum, jejunum, ileum, cecum, ascending colon, transverse colon, descending colon and the liver after rinsing with phosphate buffer. Pure tissues were stored at −80 °C until shredding and extraction.
Tissue samples (2 g) were homogenized with 9 cm^3 of methanol for 4 min; they were transferred to centrifuge tubes with a minimal amount of the sediment, and the remainder was combined with 5 cm^3 of methanol and repeatedly homogenized. The extracts were combined and centrifuged for 10 min. The supernatant was transferred to a graduated test tube; its volume was read from the scale, and it was evaporated under a stream of nitrogen at a temperature of 60 °C to 0.1–0.2 cm^3 of water. The evaporated product was combined with 2 cm^3 of deionized water, 2 cm^3 of 0.2 M sodium acetate and 500 µL of […] solution. After 16 h of incubation at 37 °C, the reaction was stopped by adding 0.5 cm^3 of acetonitrile. The mixture was quantitatively transferred to a centrifuge tube; it was combined with 10 cm^3 of deionized water and centrifuged for 10 min at 3500 rpm. The supernatant was applied to the Zearala-Test™ column at the rate of 1–2 drops per second. Mycotoxins were eluted from the column with 1.5 mL of methanol; the solvent was evaporated, and the residue was reconstituted with 1 mL of methanol for HPLC analysis.
The concentrations of ZEN and its derivatives were determined by HPLC with the use of the Waters 2695 Separations Module, Waters 2475 Multi λ Fluorescence Detector and Waters 2996 Array Detector. Excitation and emission wavelengths were 274 and 440 nm, respectively. The reverse-phase column was C-18 Nova Pak (3.9 × 150 mm), and the mobile phase was acetonitrile-water-methanol (46:46:8, v/v/v) at a flow rate of 0.5 mL·min^−1. The mycotoxins were quantified by measuring the […] of the peaks based on the relevant calibration curves (correlation coefficient of 0.9996 for ZEN, 0.9989 for α-ZEL and 0.9976 for β-ZEL). Detection limits were determined at 0.001 µg·g^−1 for ZEN, 0.003 µg·g^−1 for α-ZEL and 0.002 µg·g^−1 for β-ZEL. […]

[1] = Week I of exposure, total ZEN dose 280 µg/kg BW
[2] = Week II of exposure, total ZEN dose 560 µg/kg BW
[3] = Week III of exposure, total ZEN dose 840 µg/kg BW
[4] = Week IV of exposure, total ZEN dose 1120 µg/kg BW
[5] = Week V of exposure, total ZEN dose 1400 µg/kg BW
[6] = Week VI of exposure, total ZEN dose 1680 µg/kg BW

C[C@H]1CCCC(=O)CCC/C=C/c2cc(O)cc(O)c2C(=O)O1 [ZEN, zearalenone]
Carryover Factor (CF), Ascending Colon [1]: 0.0054 | Carryover Factor (CF), Cecum [1]: 0.0162 | Carryover Factor (CF), Descending Colon [1]: 0.0167 | Carryover Factor (CF), Duodenum [1]: 0.031 | Carryover Factor (CF), Ileum [1]: 0.016 | Carryover Factor (CF), Jejunum [1]: 0.035 | Carryover Factor (CF), Liver [1]: 0.0225 | Carryover Factor (CF), Transverse Colon [1]: 0.0049 | Carryover Factor (CF), Ascending Colon [2]: 0.0028 | Carryover Factor (CF), Cecum [2]: 0.0075 | Carryover Factor (CF), Descending Colon [2]: 0.0121 | Carryover Factor (CF), Duodenum [2]: 0.022 | Carryover Factor (CF), Ileum [2]: 0.009 | Carryover Factor (CF), Jejunum [2]: 0.035 | Carryover Factor (CF), Liver [2]: 0.0139 | Carryover Factor (CF), Transverse Colon [2]: 0.0082 | Carryover Factor (CF), Ascending Colon [3]: 0.0037 | Carryover Factor (CF), Descending Colon [3]: 0.0090 | Carryover Factor (CF), Duodenum [3]: 0.014 | Carryover Factor (CF), Ileum [3]: 0.008 | Carryover Factor (CF), Jejunum [3]: 0.016 | Carryover Factor (CF), Liver [3]: 0.0154 | Carryover Factor (CF), Transverse Colon [3]: 0.0046 | Carryover Factor (CF), Ascending Colon [4]: 0.0042 | Carryover Factor (CF), Cecum [4]: 0.0030 | Carryover Factor (CF), Descending Colon [4]: 0.1830 | Carryover Factor (CF), Duodenum [4]: 0.019 | Carryover Factor (CF), Ileum [4]: 0.004 | Carryover Factor (CF), Jejunum [4]: 0.039 | Carryover Factor (CF), Liver [4]: 0.0162 | Carryover Factor (CF), Transverse Colon [4]: 0.0065 | ZEN Concentrations (x¯ and SD), Ascending Colon [4]: 4.69 ± 0.45 ng/g | ZEN Concentrations (x¯ and SD), Descending Colon [4]: 205.01 ± 94.70 ng/g | ZEN Concentrations (x¯ and SD), Jejunum [4]: 43.82 ± 7.63 ng/g | ZEN Concentrations (x¯ and SD), Transverse Colon [4]: 7.37 ± 1.66 ng/g | Carryover Factor (CF), Ascending Colon [5]: 0.0024 | Carryover Factor (CF), Cecum [5]: 0.0129 | Carryover Factor (CF), Descending Colon [5]: 0.1264 | Carryover Factor (CF), Duodenum [5]: 0.091 | Carryover Factor (CF), Ileum [5]: 0.002 | Carryover Factor (CF), Jejunum [5]: 0.010 | Carryover Factor (CF), Liver [5]: 0.0142 | Carryover Factor (CF), Transverse Colon [5]: 0.0046 | ZEN Concentrations (x¯ and SD), Cecum [5]: 18.17 ± 5.02 ng/g | ZEN Concentrations (x¯ and SD), Duodenum [5]: 128 ng/g and 128.18 ± 64.54 ng/g | Carryover Factor (CF), Ascending Colon [6]: 0.0014 | Carryover Factor (CF), Cecum [6]: 0.0081 | Carryover Factor (CF), Descending Colon [6]: 0.0666 | Carryover Factor (CF), Duodenum [6]: 0.048 | Carryover Factor (CF), Ileum [6]: 0.016 | Carryover Factor (CF), Jejunum [6]: 0.005 | Carryover Factor (CF), Liver [6]: 0.0136 | Carryover Factor (CF), Transverse Colon [6]: 0.0039 | ZEN Concentrations (x¯ and SD), Ileum [6]: 27.52 ± 10.28 ng/g | ZEN Concentrations (x¯ and SD), Liver [6]: 23.00 ± 0.79 ng/g | CF, Average values, Ascending Colon (average of Weeks I-VI): 0.0033 | CF, Average values, Cecum (average of Weeks I-VI): 0.0089 | CF, Average values, Descending Colon (average of Weeks I-VI): 0.0688 | CF, Average values, Duodenum (average of Weeks I-VI): 0.0375 | CF, Average values, Ileum (average of Weeks I-VI): 0.0091 | CF, Average values, Jejunum (average of Weeks I-VI): 0.0233 | CF, Average values, Liver (average of Weeks I-VI): 0.0159 | CF, Average values, Transverse Colon (average of Weeks I-VI): 0.0054 | ZEN concentration, Average values, Ascending Colon (average of Weeks I-VI): 2.805 ng/g | ZEN concentration, Average values, Descending Colon (average of Weeks I-VI): 85.525 ng/g | ZEN concentration, Average values, Duodenum (average of Weeks I-VI): 43.93 ng/g | ZEN concentration, Average values, Ileum (average of Weeks I-VI): 8.705 ng/g | ZEN concentration, Average values, Jejunum (average of Weeks I-VI): 18.208 ng/g | ZEN concentration, Average values, Liver (average of Weeks I-VI): 14.72 ng/g | average ileal concentrations of ZEN (between Week I and Week V): 4.9 ng/g | concentration at 4 weeks (ascending colon, 40 μg/kg BW daily, Week IV of exposure, total ZEN dose 1120 µg/kg BW, read-out: ZEN Concentrations (x¯ and SD), Ascending Colon): 4.7 ng/g | concentration at 5 weeks (ascending colon, 40 μg/kg BW daily, Week V of exposure, total ZEN dose 1400 µg/kg BW, read-out: ZEN Concentrations (x¯ and SD), Ascending Colon): 3.4 ± 0.54 ng/g | concentration at 1 week (ascending colon, 40 μg/kg BW, Week I of exposure, total ZEN dose 280 µg/kg BW, read-out: ZEN Concentrations (x¯ and SD), Ascending Colon): 1.53 ± 1.95 ng/g | concentration at 2 weeks (ascending colon, 40 μg/kg BW, Week II of exposure, total ZEN dose 560 µg/kg BW, read-out: ZEN Concentrations (x¯ and SD), Ascending Colon): 1.59 ± 2.76 ng/g | concentration at 3 weeks (ascending colon, 40 μg/kg BW, Week III of exposure, total ZEN dose 840 µg/kg BW, read-out: ZEN Concentrations (x¯ and SD), Ascending Colon): 3.16 ± 1.79 ng/g | concentration at 6 weeks (ascending colon, 40 μg/kg BW, Week VI of exposure, total ZEN dose 1680 µg/kg BW, read-out: ZEN Concentrations (x¯ and SD), Ascending Colon): 2.46 ± 1.92 ng/g | concentration at 5 weeks (cecum, 40 μg/kg BW daily, Week V of exposure, total ZEN dose 1400 µg/kg BW, read-out: ZEN Concentrations (x¯ and SD), Cecum): 18.2 ng/g | concentration at 6 weeks (cecum, 40 μg/kg BW, Week VI of exposure, total ZEN dose 1680 µg/kg BW, read-out: ZEN Concentrations (x¯ and SD), Cecum): 13.7 ± 1.17 ng/g | concentration at 4 weeks (descending colon, 40 μg/kg BW daily, Week IV of exposure, total ZEN dose 1120 µg/kg BW, read-out: ZEN Concentrations (x¯ and SD), Descending Colon): 205 ng/g | concentration at 5 weeks (descending colon, 40 μg/kg BW daily, Week V of exposure, total ZEN dose 1400 µg/kg BW, read-out: ZEN Concentrations (x¯ and SD), Descending Colon): 177 ± 50.6 ng/g | concentration at 6 weeks (descending colon, 40 μg/kg BW, Week VI of exposure, total ZEN dose 1680 µg/kg BW, read-out: ZEN Concentrations (x¯ and SD), Descending Colon): 112 ± 13.7 ng/g | concentration at 1 week (duodenum, 40 μg/kg BW daily, Week I of exposure, total ZEN dose 280 µg/kg BW, read-out: ZEN Concentrations (x¯ and SD), Duodenum): 8.6 ng/g | concentration at 5 weeks (duodenum, 40 μg/kg BW daily, Week V of exposure, total ZEN dose 1400 µg/kg BW, read-out: ZEN Concentrations (x¯ and SD), Duodenum): 128 ng/g | concentration at 6 weeks (duodenum, 40 μg/kg BW, Week VI of exposure, total ZEN dose 1680 µg/kg BW, read-out: ZEN Concentrations (x¯ and SD), Duodenum): 80.7 ± 4.34 ng/g | concentration at 6 weeks (ileum, 40 μg/kg BW daily, Week VI of exposure, total ZEN dose 1680 µg/kg BW, read-out: ZEN Concentrations (x¯ and SD), Ileum): 27.5 ng/g | concentration at 4 weeks (jejunum, 40 μg/kg BW daily, Week IV of exposure, total ZEN dose 1120 µg/kg BW, read-out: ZEN Concentrations (x¯ and SD), Jejunum): 43.8 ng/g | concentration at 6 weeks (jejunum, 40 μg/kg BW daily, Week VI of exposure, total ZEN dose 1680 µg/kg BW, read-out: ZEN Concentrations (x¯ and SD), Jejunum): 8.3 ng/g | concentration at 4 weeks (liver, 40 μg/kg BW daily, Week IV of exposure, total ZEN dose 1120 µg/kg BW, read-out: ZEN Concentrations (x¯ and SD), Liver): 18.2 ± 5.92 ng/g | concentration at 5 weeks (liver, 40 μg/kg BW daily, Week V of exposure, total ZEN dose 1400 µg/kg BW, read-out: ZEN Concentrations (x¯ and SD), Liver): 20 ± 2.43 ng/g | concentration at 6 weeks (liver, 40 μg/kg BW daily, Week VI of exposure, total ZEN dose 1680 µg/kg BW, read-out: ZEN Concentrations (x¯ and SD), Liver): 23 ng/g | concentration at 3 weeks (liver, 40 μg/kg BW, Week III of exposure, total ZEN dose 840 µg/kg BW, read-out: ZEN Concentrations (x¯ and SD), Liver): 13 ± 1.78 ng/g | concentration at 4 weeks (transverse colon, 40 μg/kg BW daily, Week IV of exposure, total ZEN dose 1120 µg/kg BW, read-out: ZEN Concentrations (x¯ and SD), Transverse Colon): 7.4 ng/g | concentration at 5 weeks (transverse colon, 40 μg/kg BW daily, Week V of exposure, total ZEN dose 1400 µg/kg BW, read-out: ZEN Concentrations (x¯ and SD), Transverse Colon): 6.49 ± 0.96 ng/g | concentration at 2 weeks (transverse colon, 40 μg/kg BW, Week II of exposure, total ZEN dose 560 µg/kg BW, read-out: ZEN Concentrations (x¯ and SD), Transverse Colon): 4.63 ± 3.86 ng/g | concentration at 3 weeks (transverse colon, 40 μg/kg BW, Week III of exposure, total ZEN dose 840 µg/kg BW, read-out: ZEN Concentrations (x¯ and SD), Transverse Colon): 3.94 ± 0.57 ng/g | concentration at 6 weeks (transverse colon, 40 μg/kg BW, Week VI of exposure, total ZEN dose 1680 µg/kg BW, read-out: ZEN Concentrations (x¯ and SD), Transverse Colon): 6.7 ± 0.25 ng/g
